Where two headings read alike, the source gives them in different places.
Legend:
[1] = test system: mice having autism spectrum disorder; experiment: Sociality experiment (three-chamber) in mouse model of autism spectrum disorder; assay type: in vivo; details: 500 mg/kg orally once a day for 2 weeks from age 3 weeks
Excerpt: Pregnant C57BL/6 mice were subcutaneously injected with valproic acid (VPA) at the time when the gestation period reached 12 days. Male mice were selected from the mice that were born from the pregnant mice that were subcutaneously injected with VPA, and these were used as animals for a mouse model of autism spectrum disorder.
Since 3-week-old mice are at the critical stage, 3-week-old normal mice and 3-week-old mice having autism spectrum disorder were subjected to a sociality experiment, a social cognition experiment, and an anxiety experiment to identify the underlying features. 500 mg/kg of L-serine (hereinafter, referred to as AST-001) was orally administered for 2 weeks to mice having autism spectrum disorder, in which the underlying features had been confirmed. The mice having autism spectrum disorder, to which AST-001 had been orally administered for 2 weeks, were again subjected to a sociality experiment, a social cognition experiment, and an anxiety experiment.
A behavioral experiment, which checks whether or not an experimental mouse moves in the direction of a social object in a case where a social object (a non-familiar mouse) and a non-social object (an empty cage) are placed in both side rooms of a three-chamber having three connected rooms, was carried out (see FIG. 1A). […]

[2] = test system: cortical layer 5 pyramidal neurons; experiment: Synaptic pruning: dendritic spine density; assay type: in vivo, mouse; details: 400 mg/kg orally for 2 weeks
Description: A mouse model of autism spectrum disorder was created with the method described in Example 1.1. It is known that in autism spectrum disorder, the number of dendrites increases more than necessary due to troubles in synaptic pruning at the critical stage. Therefore, an experiment, which checks whether or not the number of dendrites can be normalized by AST-001 administration, was carried out. After oral administration of 400 mg/kg of AST-001 for 2 weeks to 3-week-old male autism spectrum disorder mice (n=8), it was checked whether or not the spine density of the synaptic dendrites was similar to that of the control group male normal mice (n=3). […] As a result, it was confirmed that oral administration of AST-001 normalizes synaptic pruning at the critical stage in autism spectrum disorder.

[3] = test system: mice having autism spectrum disorder; experiment: Spatial memory experiment (Y-maze test); assay type: in vivo, mouse; details: 180, 300, 480 or 600 mg/kg orally for 28 days; with increasing dosage
Description: Mice having autism spectrum disorder were created by the same method as in Example 1.1. The 3-week-old male mice having autism spectrum disorder were orally injected with 180, 300, 480, or 600 mg/kg of L-serine for 28 days and then subjected to a spatial memory test. Normal mice were used as a control group. Eight mice were used for each experimental group. The spatial working memory of the mice was evaluated through the Y-maze test. As the administration dosage of L-serine increased, the value of spontaneous alteration, which is a measure of spatial memory, increased (see FIG. 7).

[4] = Pharmacokinetic experiment in Beagle dog; assay type: in vivo; details: for bioavailability / half-life: Beagle, dog, plasma; for bioavailability: po, read-out: bioavailability by the oral administration; for half-life: read-out: drug loss half-life (t1/2) (converted); for AUCinf: fasting
Description: 4 g or 8 g of L-serine was orally or intravenously administered to Beagle dogs (1.8 to 2.6 years old, 8.6 to 11.6 kg, n=20). Blood collection was divided into blood collection before L-serine administration (basal blood collection) and blood collection after administration (main blood collection). During the experiment, the Beagle dogs were maintained in a fasting state, and L-serine concentration in the plasma was analyzed by LC-MS/MS.

[5] = Pharmacokinetic experiment in healthy adult males; assay type: in vivo, human; details: for AUC(0-t): read-out: average AUClast of L-serine without baseline correction
Description: 24 hours before the administration with AST-001 (main component: L-serine), blood was collected to measure the concentration of L-serine. 60 g of an AST-001 powder is a white homogeneous powder without having foreign substances, divided and repackaged into an HDPE bottle or a bottle made of the same material, and the composition of this drug is such that 1,000 mg of the main component L-serine is comprised per 1,000 mg dose. [table]

[6] = test system: dopamine neurons in the midbrain VTA region; experiment: Patch clamp of spontaneous action potential (dopamine secretion normalization); assay type: in vivo, mouse; details: 250 mg/kg to 500 mg/kg
Description: A mouse model of autism spectrum disorder was created with the method described in Example 1.1. The 3-week-old male mice having autism spectrum disorder were divided into a group (n=6) orally injected with 250 mg/kg of AST-001 for 2 weeks and a group (n=6) orally injected with 500 mg/kg of AST-001 for 2 weeks, and were orally administered with AST-001. The 3-week-old male normal mouse group and the autism spectrum disorder mouse group (n=6) were orally administered with water once a day for 2 weeks and then used as a control group (n=6) in the behavioral experiment. The spontaneous action potential of dopamine neurons in the midbrain VTA region of the 5-week-old normal mice and the 5-week-old mice having autism spectrum disorder was checked with a patch clamp. It turned out that mice having autism spectrum disorder show a reduced firing rate of the spontaneous action potential as compared with the normal mice (see FIG. 3A). As a result, dopamine secretion has been reduced in a mouse having autism spectrum disorder, and it can be seen that the reduced dopamine secretion has caused behavioral abnormalities related to the dopamine pathway, such as attention, reward, and cognition.

[7] = test system: pediatric patients having autism spectrum disorder; experiment: Clinical trial of 52-week continuous administration, safety

SMILES: N[C@@H](CO)C(=O)O [AST-001, L-serine]
- interaction time with the social object vs interaction time with the empty cage [1]: significantly higher
- preference index for the social object [1]: high
- number of dendrites (spine density of the synaptic dendrites) [2]: significantly reduced and similar to that of the control group
- spontaneous alteration [3]: increased
- bioavailability ([4]; 4 g per individual): 106%
- bioavailability ([4]; 8 g per individual): 84.2%
- half-life ([4]; oral 4 g): 228 ± 84 min
- half-life ([4]; oral 8 g): 282 ± 108 min
- AUCinf ([4]; oral 4 g): 628 ± 108 µg·h/mL
- AUCinf ([4]; oral 8 g): 1330 µg·h/mL
- CLss/F ([5]; 15 g twice a day for 7 days, N = 7, mean ± SD): 21.97 ± 5.99 L/h
- AUC ([5]; male, human, blood, oral, 15 g, 15 g twice a day for 1 week, steady state, read-out: average AUCtau of L-serine without baseline correction): ~883 µg·h/mL
- AUC ([5]; male, human, blood, oral, 15 g, 15 g twice a day for 7 days, N = 7, mean ± SD, read-out: AUCtau, ss): 729 ± 202 µg·h/mL
- Cmax ([5]; male, human, blood, oral, 15 g twice a day for 7 days, N = 7, mean ± SD): 212 ± 56.2 µg/mL
- Vd/F ([5]; male, human, blood, oral, 15 g twice a day for 7 days, N = 7, mean ± SD, read-out: Vz/F): 348 ± 220 L
- half-life ([5]; male, human, blood, oral, 15 g twice a day for 7 days, N = 7, mean ± SD, read-out: t1/2 (converted)): 661 ± 310 min
- Tmax ([5]; male, human, blood, oral, 15 g twice a day for 7 days, N = 7, median value): 1 h
- half-life ([5]; male, human, blood, oral, read-out: average half-life of extrinsically administered L-serine): 390 to 840 min
- AUC(0-t) ([5]; male, human, blood, oral, single administration 10 g): 613 µg·h/mL
- AUC(0-t) ([5]; male, human, blood, oral, single administration 20 g): 1130 µg·h/mL
- AUC(0-t) ([5]; male, human, blood, oral, single administration 30 g): 1530 µg·h/mL
- half-life ([5]; male, human, blood, po, 15 g orally twice a day for 7 days, steady state, read-out: average half-life (converted)): ~660 min
- Cmax, AUClast, and AUCinf with increasing dosage ([5]; single oral 10 g, 15 g, 20 g or 30 g): linearly increased
- average accumulation index ([5]; steady state vs single administration with 15 g): about 1.7 times
- dopamine secretion [6]: increases
- serious adverse events and deaths evaluated to be related ([7]; 52-week continuous administration): no serious adverse events and no deaths
- COVID-19 infection adverse events ([7]; high dose group): 6 events
- COVID-19 infection adverse events ([7]; low dose group): 5 events

From patent publication US12478602B2, “Method for treating a disorder” (priority 2023, dated 2025)
